Data published in patent US20250312469A1 (CANGET BIOTEKPHARMA, priority 2024, published 2025).
Like-named read-outs stand apart in the source and are kept apart here. Marks after values point to notes of the source that are not given here.

[1] = female dogs, Group 4, 4/4 mg/kg/dose, Day 15
[2] = female dogs, Group 4, 4/4 mg/kg/dose, Day −4
[3] = female dogs, Group 4, 4/4 mg/kg/dose, Day −4 (pre-dose)
[4] = male dogs, Group 4, 4/4 mg/kg/dose, Day 15
[5] = male dogs, Group 4, 4/4 mg/kg/dose, Day −4

SMILES: CCC1(O)C(=O)OCc2c1cc1n(c2=O)Cc2cc3cc4c(cc3nc2-1)OCO4 (centres unmarked) [FL118]
- RET count percentage, max decrease, male (Day 15 vs controls): 30.65%
- leukocyte (WBC) counts, max decrease, male (Day 15 vs controls): 14.33%
- neutrophils counts (#NEUT), max decrease, male (Day 15 vs controls): 18.67%
- reticulocyte (RET) count absolute, max decrease, male (Day 15 vs controls): 33.4%
- clinical signs (all treatment groups): abnormal stool
- Cl (chloride), % Diff versus vehicle Group 1 (female dogs, Group 2, 2.5/[…], Day 15): 0%
- Cl (chloride), % Diff versus vehicle Group 1 (female dogs, Group 2, 2.5/[…], Day −4 (pre-dose)): 0%
- Cl (chloride), % Diff versus vehicle Group 1 (female dogs, Group 3, 3.3/[…], Day 15): −1%
- Cl (chloride), % Diff versus vehicle Group 1 (female dogs, Group 3, 3.3/[…], Day −4 (pre-dose)): −1%
- #EOS (eosinophils, absolute) % Diff vs Group 1 [1]: 6.45%
- #LYMP (lymphocytes, absolute) % Diff vs Group 1 [1]: −12.61%
- #NEUT % Diff [1]: 32.40%
- #RET % Diff [1]: 61.4%
- #RET Mean [1]: 60.5 10^9/L
- % BASO (basophils, percent) % Diff vs Group 1 [1]: −46.7%
- % BASO, basophils, percent, Mean [1]: 0.3%
- % EOS (eosinophils, percent) % Diff vs Group 1 [1]: −5.6%
- % EOS, eosinophils, percent, Mean [1]: 2.2%
- % LYMP (lymphocytes, percent) % Diff vs Group 1 [1]: −21.4%
- % LYMP, lymphocytes, percent, Mean [1]: 27.8%
- % MONO (monocytes, percent) % Diff vs Group 1 [1]: −18.3%
- % MONO, monocytes, percent, Mean [1]: 5.5%
- % NEUT % Diff [1]: 17.0%
- % NEUT Mean [1]: 63.9%
- % RET % Diff [1]: 47.72%
- ALB (albumin), % Diff versus vehicle Group 1 [1]: −1.6%
- ALP (alkaline phosphatase), % Diff versus vehicle Group 1 [1]: −19%
- ALP, alkaline phosphatase, Mean [1]: 110 U/L
- ALT (alanine aminotransferase), % Diff versus vehicle Group 1 [1]: 24%
- ALT, alanine aminotransferase, Mean [1]: 36 U/L
- AST (aspartate aminotransferase), % Diff versus vehicle Group 1 [1]: −7%
- AST, aspartate aminotransferase, Mean [1]: 29 U/L
- BIL-T, total bilirubin, Mean [1]: 1.60 µmol/L
- CK (creatine kinase), % Diff versus vehicle Group 1 [1]: −32%
- CK, creatine kinase, Mean [1]: 200 U/L
- CRE (creatinine), % Diff versus vehicle Group 1 [1]: 12%
- CRE, creatinine, Mean [1]: 54 µmol/L
- Ca, calcium, Mean [1]: 2.53 mmol/L
- Cl (chloride), % Diff versus vehicle Group 1 [1]: 1%
- GGT (gamma-glutamyltransferase), % Diff versus vehicle Group 1 [1]: 0%
- GGT (gamma-glutamyltransferase), Mean [1]: 3 U/L
- HCT % Diff [1]: 9.2%
- HCT Mean [1]: 43.8%
- HGB % Diff [1]: 9.5%
- HGB Mean [1]: 14.8 g/dL
- K (potassium), % Diff versus vehicle Group 1 [1]: −8.3%
- MCH Mean [1]: 23.6 pg
- MCHC % Diff [1]: −0.1%
- MCHC Mean [1]: 33.9 g/dL
- MCV % Diff [1]: −1.6%
- MCV Mean [1]: 69.6 fL
- MPV (mean platelet volume) % Diff vs Group 1 [1]: −6.3%
- MPV, mean platelet volume, Mean [1]: 12.3 fL
- P (inorganic phosphorus), % Diff versus vehicle Group 1 [1]: −11.74%
- PLT (platelet count) % Diff vs Group 1 [1]: −12%
- RBC % Diff [1]: 11.06%
- RDW % Diff [1]: −2.9%
- RDW Mean [1]: 12.5%
- TCHO (total cholesterol), % Diff versus vehicle Group 1 [1]: −6.71%
- TCHO, total cholesterol, Mean [1]: 3.52 mmol/L
- TG (triglyceride), % Diff versus vehicle Group 1 [1]: −27.70%
- TP (total protein), % Diff versus vehicle Group 1 [1]: 3.5%
- TP, total protein, Mean [1]: 57.5 g/L
- UREA (urea), % Diff versus vehicle Group 1 [1]: −3.71%
- WBC % Diff [1]: 12.58%
- sGLU (glucose), % Diff versus vehicle Group 1 [1]: 7.41%
- sGLU, glucose, Mean [1]: 4.59 mmol/L
- TG, triglyceride, Mean (female dogs, Group 4, 4/4 mg/kg/dose, Day 15, * p ≤ 0.05): 0.36* mmol/L
- #BASO (basophils, absolute) % Diff vs Group 1 [2]: 0.00%
- #EOS (eosinophils, absolute) % Diff vs Group 1 [2]: 18.46%
- #LYMP (lymphocytes, absolute) % Diff vs Group 1 [2]: −9.70%
- #MONO (monocytes, absolute) % Diff vs Group 1 [2]: 6.36%
- #NEUT % Diff [2]: 45.57%
- #RET % Diff [2]: −2.5%
- % BASO (basophils, percent) % Diff vs Group 1 [2]: −25.0%
- % BASO, basophils, percent, Mean [2]: 0.2%
- % EOS (eosinophils, percent) % Diff vs Group 1 [2]: 4.5%
- % EOS, eosinophils, percent, Mean [2]: 2.3%
- % LYMP (lymphocytes, percent) % Diff vs Group 1 [2]: −25.5%
- % LYMP, lymphocytes, percent, Mean [2]: 24.4%
- % MONO (monocytes, percent) % Diff vs Group 1 [2]: −14.4%
- % MONO, monocytes, percent, Mean [2]: 6.9%
- % NEUT % Diff [2]: 17.0%
- % RET Mean [2]: 0.71%
- HCT % Diff [2]: 5.4%
- HCT Mean [2]: 44.9%
- HGB % Diff [2]: 7.3%
- HGB Mean [2]: 15.1 g/dL
- MCH Mean [2]: 23.4 pg
- MCHC % Diff [2]: 1.8%
- MCHC Mean [2]: 35.7 g/dL
- MCV % Diff [2]: −1.8%
- MPV, mean platelet volume, Mean [2]: 11.1 fL
- PLT (platelet count) % Diff vs Group 1 [2]: −10%
- RDW Mean [2]: 13.1%
- WBC % Diff [2]: 23.46%
- ALB (albumin), % Diff versus vehicle Group 1 [3]: 1.8%
- ALP (alkaline phosphatase), % Diff versus vehicle Group 1 [3]: −19%
- ALP, alkaline phosphatase, Mean [3]: 129 U/L
- ALT (alanine aminotransferase), % Diff versus vehicle Group 1 [3]: −8%
- ALT, alanine aminotransferase, Mean [3]: 25 U/L
- AST (aspartate aminotransferase), % Diff versus vehicle Group 1 [3]: −11%
- AST, aspartate aminotransferase, Mean [3]: 31 U/L
- BIL-T (total bilirubin), % Diff versus vehicle Group 1 [3]: 23.23%
- CK (creatine kinase), % Diff versus vehicle Group 1 [3]: −39%
- CK, creatine kinase, Mean [3]: 233 U/L
- CRE (creatinine), % Diff versus vehicle Group 1 [3]: 11%
- CRE, creatinine, Mean [3]: 52 µmol/L
- Ca (calcium), % Diff versus vehicle Group 1 [3]: −2.36%
- Cl (chloride), % Diff versus vehicle Group 1 [3]: 2%
- GGT (gamma-glutamyltransferase), % Diff versus vehicle Group 1 [3]: 0%
- GGT (gamma-glutamyltransferase), Mean [3]: 3 U/L
- GLB, globulin, Mean [3]: 27.3 g/L
- K, potassium, Mean [3]: 4.3 mmol/L
- Na (sodium), % Diff versus vehicle Group 1 [3]: 1%
- Na, sodium, Mean [3]: 147 mmol/L
- P (inorganic phosphorus), % Diff versus vehicle Group 1 [3]: −6.41%
- P, inorganic phosphorus, Mean [3]: 1.61 mmol/L
- TCHO (total cholesterol), % Diff versus vehicle Group 1 [3]: −6.71%
- TCHO, total cholesterol, Mean [3]: 3.66 mmol/L
- TG (triglyceride), % Diff versus vehicle Group 1 [3]: −11.26%
- TG, triglyceride, Mean [3]: 0.45 mmol/L
- TP, total protein, Mean [3]: 57.4 g/L
- UREA, urea, Mean [3]: 4.17 mmol/L
- sGLU (glucose), % Diff versus vehicle Group 1 [3]: −0.07%
- NOAEL (for males): 4.4 mg/kg/dose
- Cl (chloride) % Diff vs Group 1 (male dogs, Group 2, 2.5/[…], Day 15): 3%
- Cl (chloride) % Diff vs Group 1 (male dogs, Group 2, 2.5/[…], Day −4): 2%
- Cl (chloride) % Diff vs Group 1 (male dogs, Group 3, 3.3/[…], Day 15): 2%
- Cl (chloride) % Diff vs Group 1 (male dogs, Group 3, 3.3/[…], Day −4): −1%
- ALP (alkaline phosphatase) % Diff vs Group 1 [4]: −31%
- ALT (alanine aminotransferase) % Diff vs Group 1 [4]: 4%
- ALT, alanine aminotransferase, Mean [4]: 29 L⁻¹
- AST (aspartate aminotransferase) % Diff vs Group 1 [4]: −31%
- BIL-T (total bilirubin (diasys)) % Diff vs Group 1 [4]: 31.07%
- BIL-T (total bilirubin (diasys)) Mean [4]: 1.48 L⁻¹
- CK (creatine kinase) % Diff vs Group 1 [4]: −10%
- CK, creatine kinase, Mean [4]: 281 U/L
- GGT (gamma-glutamyltransferase), Mean [4]: 3 U/L
- GLB, globulin, Mean [4]: 28.3* g/L
- K (potassium) % Diff vs Group 1 [4]: −10.3%
- K, potassium, Mean [4]: 4.4 mmol/L
- Na (sodium) % Diff vs Group 1 [4]: 2%
- Na, sodium, Mean [4]: 148 mmol/L
- P, inorganic phosphorus, Mean [4]: 1.63 L⁻¹
- TCHO, total cholesterol, Mean [4]: 4.77 mmol/L
- TG (triglyceride) % Diff vs Group 1 [4]: −15.79%
- UREA (urea) % Diff vs Group 1 [4]: 2.96%
- sGLU (glucose) % Diff vs Group 1 [4]: −6.55%
- sGLU, glucose, Mean [4]: 4.47 L⁻¹
- ALB, albumin, Mean [5]: 11.0 g/L
- ALP (alkaline phosphatase) % Diff vs Group 1 [5]: −5%
- ALP, alkaline phosphatase, Mean [5]: 141 L⁻¹
- ALT (alanine aminotransferase) % Diff vs Group 1 [5]: 3%
- ALT, alanine aminotransferase, Mean [5]: 25 L⁻¹
- AST (aspartate aminotransferase) % Diff vs Group 1 [5]: −3%
- AST, aspartate aminotransferase, Mean [5]: 32 L⁻¹
- BIL-T (total bilirubin (diasys)) Mean [5]: 1.67 L⁻¹
- CK (creatine kinase) % Diff vs Group 1 [5]: 15%
- CRE (creatinine) % Diff vs Group 1 [5]: 8%
- Cl (chloride) % Diff vs Group 1 [5]: 1%
- K (potassium) % Diff vs Group 1 [5]: −2.8%
- K, potassium, Mean [5]: 4.7 mmol/L
- Na (sodium) % Diff vs Group 1 [5]: 0%
- Na, sodium, Mean [5]: 146 mmol/L
- P, inorganic phosphorus, Mean [5]: 1.52 L⁻¹
- TCHO (total cholesterol) % Diff vs Group 1 [5]: −2.15%
- TCHO, total cholesterol, Mean [5]: 4.85 mmol/L
- TG (triglyceride) % Diff vs Group 1 [5]: −8.33%
- TG, triglyceride, Mean [5]: 0.40 mmol/L
- UREA, urea, Mean [5]: 4.25 L⁻¹
- sGLU, glucose, Mean [5]: 4.11 L⁻¹
- Total Bilirubin (BIL-T), max increase, females (vs control group): 16.14%
- Total Bilirubin (BIL-T), max increase, males (vs control group): 47.34%
- Triglyceride (TG), max decrease, females (vs control group): 37.84%
- Triglyceride (TG), max decrease, males (vs control group): 22.56%
